According to patent US9340544B2, “Purinyl derivatives and their use as potassium channel modulators” (NeuroSearch A/S, priority 2007, dated 2016):

These compounds were tested against T1, hSK3 channels (Homo sapiens, UniProt Q9UGI6) (assay: Whole-cell patch-clamp recording of ionic current through SK channels (subtype 3) in HEK293 cells expressing hSK3). Conditions: SK3 activation.
T1 construct: expressed in transfected cells; host or cells: HEK293
Type: cell-based
Description: The ionic current through small-conductance Ca^2+-activated K^+ channels (SK channels, subtype 3) is recorded using the whole-cell configuration of the patch-clamp technique in a classic patch-clamp set-up using HEK293 tissue culture cells expressing hSK3 channels as described in e.g. WO 2006/100212.
The SC100 value determined is defined as the Stimulating Concentration required for increasing the baseline current by 100%.
With `CCn1cnc2c(Nc3ccc(Cl)cc3)nc(-n3nc(C)cc3C)nc21` [Compound 6.4, (4-Chloro-phenyl)-[2-(3,5-dimethyl-pyrazol-1-yl)-9-ethyl-9H-purin-6-yl]-amine] the “The SC100 (Stimulating Concentration required for increasing the baseline current by 100%)” value was 0.01 µM. For `Cc1cc(C)n(-c2nc(Nc3ccc(F)cc3)c3ncn(C)c3n2)n1` [Compound 9.1, [2-(3,5-Dimethyl-pyrazol-1-yl)-9-methyl-9H-purin-6-yl]-(4-fluoro-phenyl)-amine], the “The SC100 (Stimulating Concentration required for increasing the baseline current by 100%)” value was 0.05 µM. In the case of `Cc1cc(C)n(-c2nc(Nc3ccc(Cl)nc3)c3ncn(C)c3n2)n1` [Compound 9.7, (6-Chloro-pyridin-3-yl)-[2-(3,5-dimethyl-pyrazol-1-yl)-9-methyl-9H-purin-6-yl]-amine], the “The SC100 (Stimulating Concentration required for increasing the baseline current by 100%)” value is reported as 0.4 µM. For `Cc1cc(C)n(-c2nc(Nc3ccc([N+](=O)[O-])cc3)c3ncn(C)c3n2)n1` [Compound 9.8, [2-(3,5-Dimethyl-pyrazol-1-yl)-9-methyl-9H-purin-6-yl]-(4-nitro-phenyl)-amine], the “The SC100 (Stimulating Concentration required for increasing the baseline current by 100%)” value was 0.2 µM. `Cc1cc(C)n(-c2nc(NCCc3ccccc3)c3ncn(C)c3n2)n1` [Compound 9.11, [2-(3,5-Dimethyl-pyrazol-1-yl)-9-methyl-9H-purin-6-yl]-phenethyl-amine] was tested, and the “The SC100 (Stimulating Concentration required for increasing the baseline current by 100%)” value was 0.2 µM. For `CCc1cc(CC)n(-c2nc(Nc3ccc(Cl)cc3)c3ncn(C)c3n2)n1` [Compound 9.14, (4-Chloro-phenyl)-[2-(3,5-diethyl-pyrazol-1-yl)-9-methyl-9H-purin-6-yl]-amine], the “The SC100 (Stimulating Concentration required for increasing the baseline current by 100%)” value was 0.6 µM. `Cc1nn(-c2nc(Nc3ccc(Cl)cc3)c3ncn(C)c3n2)c(C)c1Cl` [Compound 9.16, [2-(4-Chloro-3,5-dimethyl-pyrazol-1-yl)-9-methyl-9H-purin-6-yl]-(4-chloro-phenyl)-amine] was tested, and the “The SC100 (Stimulating Concentration required for increasing the baseline current by 100%)” value was 0.02 µM. `Cc1cc(-c2ccco2)nn1-c1nc(Nc2ccc(Cl)cc2)c2ncn(C)c2n1` [Compound 9.18, (4-Chloro-phenyl)-[2-(3-furan-2-yl-5-methyl-pyrazol-1-yl)-9-methyl-9H-purin-6-yl]-amine] was tested, and the “The SC100 (Stimulating Concentration required for increasing the baseline current by 100%)” value was 1.0 µM. With `Cc1cc(CO)n(-c2nc(Nc3ccc(Cl)cc3)c3ncn(C)c3n2)n1` [Compound 13.1, {2-[6-(4-Chloro-phenylamino)-9-methyl-9H-purin-2-yl]-5-methyl-2H-pyrazol-3-yl}-methanol] the “The SC100 (Stimulating Concentration required for increasing the baseline current by 100%)” value was 0.2 µM. With `Cc1cc(C)n(-c2nc(Nc3ccccc3)c3nc[nH]c3n2)n1` [Compound 14.1, [2-(3,5-Dimethyl-pyrazol-1-yl)-9H-purin-6-yl]-phenyl-amine] the “The SC100 (Stimulating Concentration required for increasing the baseline current by 100%)” value was 0.2 µM. `COCCn1cnc2c(Nc3ccccc3)nc(-n3nc(C)cc3C)nc21` [Compound 15.1, [2-(3,5-Dimethyl-pyrazol-1-yl)-9-(2-methoxy-ethyl)-9H-purin-6-yl-]phenyl-amine] was tested, and the “The SC100 (Stimulating Concentration required for increasing the baseline current by 100%)” value was 0.4 µM.
